Test results published in publication PMC12416277, “Phytochemical alkaloids orchestrate immunometabolism against viral infections” (National Science Review, 2025).
pEC50: −log10 of the molar value.

Tests used:
HSV-1 [1] = test: microbe, parasite or virus in culture; type: cell-based, herpes simplex virus 1 (HSV-1); conditions: Human alphaherpesvirus 1, A549
[2] = cited from earlier work
[3] = tested on: TBK1, STAT1 and STAT2 phosphorylation; test: Immunoblotting of p-TBK1, p-STAT1, p-STAT2 in THP-1 and MEF cells; type: cell-based; conditions: THP-1, MEF cells
VSV = type: cell-based, vesicular stomatitis virus (VSV)
[4] = tested on: cholesterol metabolism genes; type: cell-based, human
H1N1 [5] = test: H1N1 NP protein in A549 cells (confocal microscopy, immunoblotting); type: cell-based, influenza virus A (H1N1)
Procedure: Cells were lysed in lysis buffer and the protein concentrations were determined using the BCA Protein Assay Kit. Subsequently, the protein samples were separated by SDS-PAGE electrophoresis and transferred to nitrocellulose (NC) membranes, and blocked in 5% skim milk for 1 h at room temperature. Following an overnight incubation at 4°C with specific primary antibodies, the membranes were exposed to the appropriate HPR-conjugated antibodies and visualized using enhanced chemiluminescence.
Cells were fixed with 4% PFA for 20 min, permeabilized with 0.2% Triton X-100 for 20 min, and blocked in 5% BAS for 1 h. After incubating with primary antibodies at 4℃ overnight, fluorescent secondary antibodies (Alexa-488, Alexa-594, Alexa-647) were added at RT for 1 h. Confocal microscopy analyses were carried out using Olympus FV3000 confocal microscope, and Leica TCS SP8 confocal microscope. […] Cells were then analyzed for Filipin staining signals by microscopy in the DAPI channel. […] Cells were then analyzed for signals by microscopy in the AF647 channel.
Figure S2. […] P values were calculated using one-way ANOVA.

NPC1 = biological target: T1, NPC1 (Homo sapiens, UniProt O15118); test: Bio-Tet streptavidin pull-down from cell lysates; type: binding
T1 sequence (O15118 23-1278): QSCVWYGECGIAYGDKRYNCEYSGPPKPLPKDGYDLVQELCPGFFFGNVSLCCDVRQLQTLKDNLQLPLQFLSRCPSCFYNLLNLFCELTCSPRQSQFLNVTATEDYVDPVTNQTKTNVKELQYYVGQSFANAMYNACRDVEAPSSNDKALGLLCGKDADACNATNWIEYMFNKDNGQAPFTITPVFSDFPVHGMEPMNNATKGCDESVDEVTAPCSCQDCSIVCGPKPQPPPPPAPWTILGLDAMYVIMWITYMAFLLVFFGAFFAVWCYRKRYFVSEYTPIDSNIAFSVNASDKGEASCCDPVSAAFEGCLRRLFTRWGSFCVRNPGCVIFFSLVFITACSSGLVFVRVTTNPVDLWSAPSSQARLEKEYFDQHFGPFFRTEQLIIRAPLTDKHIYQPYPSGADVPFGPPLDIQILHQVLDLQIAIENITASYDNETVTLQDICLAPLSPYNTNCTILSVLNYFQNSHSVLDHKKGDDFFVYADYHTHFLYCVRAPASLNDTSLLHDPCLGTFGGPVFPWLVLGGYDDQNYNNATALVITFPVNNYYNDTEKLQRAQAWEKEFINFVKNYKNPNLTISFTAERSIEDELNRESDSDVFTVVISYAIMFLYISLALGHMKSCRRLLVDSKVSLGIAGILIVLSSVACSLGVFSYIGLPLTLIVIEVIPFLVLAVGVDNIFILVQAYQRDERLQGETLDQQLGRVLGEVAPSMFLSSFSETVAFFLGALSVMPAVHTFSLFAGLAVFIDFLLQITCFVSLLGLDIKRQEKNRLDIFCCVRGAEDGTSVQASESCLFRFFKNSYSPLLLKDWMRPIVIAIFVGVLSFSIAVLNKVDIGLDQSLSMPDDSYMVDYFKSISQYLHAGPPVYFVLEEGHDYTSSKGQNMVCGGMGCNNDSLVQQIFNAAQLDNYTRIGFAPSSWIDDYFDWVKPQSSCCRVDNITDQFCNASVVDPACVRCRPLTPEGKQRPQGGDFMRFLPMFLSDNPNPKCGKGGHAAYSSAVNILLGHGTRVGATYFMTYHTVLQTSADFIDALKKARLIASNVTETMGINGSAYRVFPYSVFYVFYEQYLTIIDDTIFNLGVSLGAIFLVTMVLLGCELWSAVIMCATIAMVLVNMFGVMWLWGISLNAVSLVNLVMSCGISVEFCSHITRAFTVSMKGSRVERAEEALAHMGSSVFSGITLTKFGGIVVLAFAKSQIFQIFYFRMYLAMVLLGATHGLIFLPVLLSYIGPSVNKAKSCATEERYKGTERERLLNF

H1N1 [6] = test: H1N1 mRNA in WT, TPCN1-/-, TPCN2-/- A549 cells or with nimodipine, qRT-PCR; type: cell-based, influenza virus A (H1N1)
HSV-1 [7] = type: cell-based, herpes simplex virus 1 (HSV-1)

For COc1ccc2cc1Oc1ccc(cc1)C[C@H]1c3cc(c(OC)cc3CCN1C)Oc1c(OC)c(OC)cc3c1[C@H](C2)N(C)CC3 [Tet, tetrandrine], the pEC50 (HSV-1 [1]) is listed as 5.80, the systemic clearance [2] is listed as “low” and the volume of distribution [2] is listed as “high”. For the same compound, the “phosphorylation of TBK1, STAT1 and STAT2” value [3] was “increased the phosphorylation of TBK1, STAT1 and STAT2 in a time- and dose-dependent manner”, the VSV replication (VSV) was “suppressed” and the antiviral efficacy (VSV) was “remained unchanged”. The “expression of genes involved in cholesterol synthesis (SREBF2, HMGCR, SQLE, SREBP1C, DHCR24, DHCR7, FASN) and absorption (LDLR)” value [4] was “increased expression”, the “expression of genes related to cholesterol transport (ABCA1, ABCG1), oxidation (CYP27A1, CYP46A1) or esterification (ACAT1, ACAT2)” value [4] was “did not affect the expression” and the “H1N1 NP protein expression” value (H1N1 [5]) was “effectively reduced”. The cytopathic effects (H1N1 [5]) was “without causing cytopathic effects”, the “competition of Bio-Tet/NPC1 interaction” value (NPC1) was “competitively inhibited” and the H1N1 replication (H1N1 [6]) was “suppressed”. The antiviral efficacy (H1N1 [6]; with nimodipine treatment) was “remained unchanged” and the “antiviral effect against HSV-1” value (HSV-1 [7]) was “markedly reduced”.
